Results taken from ChEMBL document CHEMBL1145498, “A systematic interaction map of validated kinase inhibitors with Ser/Thr kinases” (Proc Natl Acad Sci U S A, 2007).

How the values were obtained:
[1] = target: T1, Serine/threonine-protein kinase VRK1 (Homo sapiens) (UniProt Q99986)
T1 sequence (whole entry): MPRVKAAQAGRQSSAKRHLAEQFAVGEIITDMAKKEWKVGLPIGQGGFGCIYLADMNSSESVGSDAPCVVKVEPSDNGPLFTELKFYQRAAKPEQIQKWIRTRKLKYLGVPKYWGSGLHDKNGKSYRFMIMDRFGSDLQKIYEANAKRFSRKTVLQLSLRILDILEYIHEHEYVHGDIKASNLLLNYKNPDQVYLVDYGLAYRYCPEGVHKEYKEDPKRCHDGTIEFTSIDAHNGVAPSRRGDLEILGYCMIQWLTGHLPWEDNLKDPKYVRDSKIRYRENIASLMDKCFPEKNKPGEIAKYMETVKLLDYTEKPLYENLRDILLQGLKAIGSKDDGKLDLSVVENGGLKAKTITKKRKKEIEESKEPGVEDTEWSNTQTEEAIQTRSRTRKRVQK

[2] = target: TRAF2 and NCK-interacting protein kinase (Homo sapiens) (UniProt Q9UKE5)
TRAF2 and NCK-interacting protein kinase (Homo sapiens), sequence (Q9UKE5 whole entry, looked up): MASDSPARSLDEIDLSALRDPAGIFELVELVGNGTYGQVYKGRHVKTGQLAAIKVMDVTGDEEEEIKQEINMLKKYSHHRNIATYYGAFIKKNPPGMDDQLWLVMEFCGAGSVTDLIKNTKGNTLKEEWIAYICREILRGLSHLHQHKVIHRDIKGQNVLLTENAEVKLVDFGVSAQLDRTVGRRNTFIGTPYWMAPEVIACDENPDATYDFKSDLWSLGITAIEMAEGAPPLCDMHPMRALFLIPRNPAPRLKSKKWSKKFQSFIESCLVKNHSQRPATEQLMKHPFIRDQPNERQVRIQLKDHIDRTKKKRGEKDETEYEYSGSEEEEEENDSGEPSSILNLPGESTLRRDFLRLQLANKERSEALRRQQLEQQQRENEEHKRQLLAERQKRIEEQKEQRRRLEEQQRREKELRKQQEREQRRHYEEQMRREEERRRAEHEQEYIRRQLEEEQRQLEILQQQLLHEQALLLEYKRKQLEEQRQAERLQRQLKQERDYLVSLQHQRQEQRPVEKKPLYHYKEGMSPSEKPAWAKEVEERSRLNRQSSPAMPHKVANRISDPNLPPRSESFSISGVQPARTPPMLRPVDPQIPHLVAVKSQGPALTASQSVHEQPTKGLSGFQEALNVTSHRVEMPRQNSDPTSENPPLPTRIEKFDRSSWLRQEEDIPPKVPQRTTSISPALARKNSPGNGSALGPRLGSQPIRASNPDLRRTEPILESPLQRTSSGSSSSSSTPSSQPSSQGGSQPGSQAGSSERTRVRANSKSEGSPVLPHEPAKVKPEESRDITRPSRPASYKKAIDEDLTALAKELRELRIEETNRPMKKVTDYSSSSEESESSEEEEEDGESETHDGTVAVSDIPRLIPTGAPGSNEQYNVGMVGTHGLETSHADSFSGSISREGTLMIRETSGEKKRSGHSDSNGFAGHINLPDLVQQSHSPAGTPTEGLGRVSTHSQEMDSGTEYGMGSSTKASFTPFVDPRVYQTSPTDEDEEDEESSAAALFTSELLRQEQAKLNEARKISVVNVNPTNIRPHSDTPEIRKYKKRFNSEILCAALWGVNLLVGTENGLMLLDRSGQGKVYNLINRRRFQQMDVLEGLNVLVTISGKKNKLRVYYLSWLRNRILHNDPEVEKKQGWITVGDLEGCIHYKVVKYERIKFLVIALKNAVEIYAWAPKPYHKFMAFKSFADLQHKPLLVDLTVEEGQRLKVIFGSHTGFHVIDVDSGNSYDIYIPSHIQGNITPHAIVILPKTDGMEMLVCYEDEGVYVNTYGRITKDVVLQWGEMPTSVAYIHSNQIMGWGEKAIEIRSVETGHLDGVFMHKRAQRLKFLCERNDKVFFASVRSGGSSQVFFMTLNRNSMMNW

[3] = target: Serine/threonine-protein kinase Nek6 (Homo sapiens) (UniProt Q9HC98)
Serine/threonine-protein kinase Nek6 (Homo sapiens), sequence (Q9HC98 whole entry): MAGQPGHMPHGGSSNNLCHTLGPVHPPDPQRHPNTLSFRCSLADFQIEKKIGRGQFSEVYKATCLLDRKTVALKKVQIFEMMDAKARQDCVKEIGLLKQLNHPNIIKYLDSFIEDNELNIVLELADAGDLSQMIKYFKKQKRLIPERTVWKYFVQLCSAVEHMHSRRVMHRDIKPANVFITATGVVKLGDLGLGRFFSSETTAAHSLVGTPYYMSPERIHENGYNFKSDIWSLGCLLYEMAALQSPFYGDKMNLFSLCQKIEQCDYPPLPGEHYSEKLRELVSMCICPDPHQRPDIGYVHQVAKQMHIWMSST

[4] = target: Serine/threonine-protein kinase PAK 6 (Homo sapiens) (UniProt Q9NQU5)
Serine/threonine-protein kinase PAK 6 (Homo sapiens), sequence (Q9NQU5 whole entry, looked up): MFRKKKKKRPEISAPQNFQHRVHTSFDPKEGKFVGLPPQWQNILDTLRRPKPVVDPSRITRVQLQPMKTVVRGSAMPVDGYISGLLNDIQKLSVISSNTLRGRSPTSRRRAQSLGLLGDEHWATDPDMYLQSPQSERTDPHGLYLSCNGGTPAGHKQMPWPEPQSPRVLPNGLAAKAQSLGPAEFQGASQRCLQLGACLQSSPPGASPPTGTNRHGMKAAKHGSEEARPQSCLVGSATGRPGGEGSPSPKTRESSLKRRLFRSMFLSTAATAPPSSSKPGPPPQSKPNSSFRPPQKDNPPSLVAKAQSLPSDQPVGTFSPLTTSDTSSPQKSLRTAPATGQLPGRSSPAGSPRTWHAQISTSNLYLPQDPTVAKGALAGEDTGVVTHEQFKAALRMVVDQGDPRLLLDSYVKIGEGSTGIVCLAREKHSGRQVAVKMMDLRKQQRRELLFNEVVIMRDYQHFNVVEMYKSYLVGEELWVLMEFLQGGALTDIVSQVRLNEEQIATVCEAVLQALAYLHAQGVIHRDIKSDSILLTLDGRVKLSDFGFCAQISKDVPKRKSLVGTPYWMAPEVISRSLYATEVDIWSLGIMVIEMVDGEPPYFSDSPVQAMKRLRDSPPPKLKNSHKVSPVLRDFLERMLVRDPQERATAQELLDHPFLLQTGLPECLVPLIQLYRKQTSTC

[5] = target: Cyclin-dependent kinase 2 (Homo sapiens, UniProt P24941)
[6] = target: T2, Calcium/calmodulin-dependent protein kinase type IV (Homo sapiens) (UniProt Q16566)
T2 sequence (whole entry): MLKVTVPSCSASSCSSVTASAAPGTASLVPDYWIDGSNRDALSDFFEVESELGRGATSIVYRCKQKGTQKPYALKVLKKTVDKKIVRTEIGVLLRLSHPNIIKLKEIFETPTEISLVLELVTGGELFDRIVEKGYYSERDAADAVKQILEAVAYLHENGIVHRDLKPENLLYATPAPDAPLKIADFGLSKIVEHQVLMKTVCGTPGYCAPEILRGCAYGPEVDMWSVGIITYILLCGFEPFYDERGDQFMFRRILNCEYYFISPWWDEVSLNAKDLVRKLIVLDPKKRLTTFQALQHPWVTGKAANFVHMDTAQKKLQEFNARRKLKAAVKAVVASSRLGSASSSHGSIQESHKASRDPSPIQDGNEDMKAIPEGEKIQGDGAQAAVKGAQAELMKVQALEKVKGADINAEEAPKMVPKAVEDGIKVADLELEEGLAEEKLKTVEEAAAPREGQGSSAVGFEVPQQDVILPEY

[7] = target: T3, 3-phosphoinositide-dependent protein kinase 1 (Homo sapiens) (UniProt O15530)
T3 sequence (whole entry): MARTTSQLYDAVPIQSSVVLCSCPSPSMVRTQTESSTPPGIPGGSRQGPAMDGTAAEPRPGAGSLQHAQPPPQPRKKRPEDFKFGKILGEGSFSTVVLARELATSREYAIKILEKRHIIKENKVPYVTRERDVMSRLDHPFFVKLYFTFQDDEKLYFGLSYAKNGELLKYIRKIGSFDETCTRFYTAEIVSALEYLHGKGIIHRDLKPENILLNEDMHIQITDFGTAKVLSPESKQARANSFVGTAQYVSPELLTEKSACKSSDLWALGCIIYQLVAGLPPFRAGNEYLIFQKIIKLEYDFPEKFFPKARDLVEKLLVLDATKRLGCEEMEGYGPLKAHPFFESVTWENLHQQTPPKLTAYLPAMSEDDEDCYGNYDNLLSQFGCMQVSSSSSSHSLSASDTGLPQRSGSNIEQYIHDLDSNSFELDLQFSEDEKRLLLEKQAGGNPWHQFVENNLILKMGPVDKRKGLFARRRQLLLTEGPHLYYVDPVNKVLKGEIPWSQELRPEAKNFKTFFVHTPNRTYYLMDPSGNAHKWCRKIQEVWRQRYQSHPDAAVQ

[8] = target: T4, Serine/threonine-protein kinase PLK4 (Homo sapiens) (UniProt O00444)
T4 sequence (whole entry): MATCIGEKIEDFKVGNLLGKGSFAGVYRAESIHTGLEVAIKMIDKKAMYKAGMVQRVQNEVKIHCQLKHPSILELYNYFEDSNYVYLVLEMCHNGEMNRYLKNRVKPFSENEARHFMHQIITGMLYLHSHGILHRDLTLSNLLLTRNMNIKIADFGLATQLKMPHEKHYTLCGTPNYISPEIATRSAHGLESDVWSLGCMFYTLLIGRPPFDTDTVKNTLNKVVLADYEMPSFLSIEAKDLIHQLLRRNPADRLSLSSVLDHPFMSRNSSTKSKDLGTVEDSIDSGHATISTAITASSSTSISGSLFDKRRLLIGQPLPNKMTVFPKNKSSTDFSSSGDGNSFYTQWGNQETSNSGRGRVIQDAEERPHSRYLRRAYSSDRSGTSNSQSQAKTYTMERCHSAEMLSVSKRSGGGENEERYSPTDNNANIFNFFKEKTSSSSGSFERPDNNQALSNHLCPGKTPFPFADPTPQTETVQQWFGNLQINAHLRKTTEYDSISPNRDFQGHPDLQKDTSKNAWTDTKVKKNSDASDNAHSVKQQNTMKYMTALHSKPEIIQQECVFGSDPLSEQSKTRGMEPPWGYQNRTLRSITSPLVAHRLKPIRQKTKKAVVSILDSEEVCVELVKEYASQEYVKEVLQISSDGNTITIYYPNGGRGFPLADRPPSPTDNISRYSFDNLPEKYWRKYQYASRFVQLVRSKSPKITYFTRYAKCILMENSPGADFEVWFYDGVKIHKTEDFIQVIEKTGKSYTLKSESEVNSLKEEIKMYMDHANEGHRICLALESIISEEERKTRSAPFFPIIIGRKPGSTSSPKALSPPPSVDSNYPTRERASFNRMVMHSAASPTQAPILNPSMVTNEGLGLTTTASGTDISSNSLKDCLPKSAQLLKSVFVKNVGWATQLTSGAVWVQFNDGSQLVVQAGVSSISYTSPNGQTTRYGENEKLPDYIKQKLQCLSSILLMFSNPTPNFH

[9] = target: Serine/threonine-protein kinase PAK 4 (Homo sapiens) (UniProt O96013)
Serine/threonine-protein kinase PAK 4 (Homo sapiens), sequence (O96013 whole entry, looked up): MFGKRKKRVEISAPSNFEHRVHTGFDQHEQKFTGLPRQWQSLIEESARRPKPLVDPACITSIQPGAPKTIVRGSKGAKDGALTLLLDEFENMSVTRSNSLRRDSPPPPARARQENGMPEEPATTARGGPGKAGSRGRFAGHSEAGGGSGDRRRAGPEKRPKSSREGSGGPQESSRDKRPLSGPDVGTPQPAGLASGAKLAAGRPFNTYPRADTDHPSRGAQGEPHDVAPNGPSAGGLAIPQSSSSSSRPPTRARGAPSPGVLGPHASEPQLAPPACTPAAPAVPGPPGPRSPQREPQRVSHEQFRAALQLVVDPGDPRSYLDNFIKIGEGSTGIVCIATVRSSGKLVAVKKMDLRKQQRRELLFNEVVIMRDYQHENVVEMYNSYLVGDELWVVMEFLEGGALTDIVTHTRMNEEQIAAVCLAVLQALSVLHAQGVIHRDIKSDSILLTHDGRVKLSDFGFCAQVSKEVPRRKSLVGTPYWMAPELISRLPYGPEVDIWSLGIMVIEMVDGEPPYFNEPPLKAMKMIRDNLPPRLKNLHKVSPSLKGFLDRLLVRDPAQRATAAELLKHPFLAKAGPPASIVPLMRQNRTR

[10] = target: Calcium/calmodulin-dependent protein kinase type II subunit delta (Homo sapiens) (UniProt Q13557)
Calcium/calmodulin-dependent protein kinase type II subunit delta (Homo sapiens), sequence (Q13557 whole entry): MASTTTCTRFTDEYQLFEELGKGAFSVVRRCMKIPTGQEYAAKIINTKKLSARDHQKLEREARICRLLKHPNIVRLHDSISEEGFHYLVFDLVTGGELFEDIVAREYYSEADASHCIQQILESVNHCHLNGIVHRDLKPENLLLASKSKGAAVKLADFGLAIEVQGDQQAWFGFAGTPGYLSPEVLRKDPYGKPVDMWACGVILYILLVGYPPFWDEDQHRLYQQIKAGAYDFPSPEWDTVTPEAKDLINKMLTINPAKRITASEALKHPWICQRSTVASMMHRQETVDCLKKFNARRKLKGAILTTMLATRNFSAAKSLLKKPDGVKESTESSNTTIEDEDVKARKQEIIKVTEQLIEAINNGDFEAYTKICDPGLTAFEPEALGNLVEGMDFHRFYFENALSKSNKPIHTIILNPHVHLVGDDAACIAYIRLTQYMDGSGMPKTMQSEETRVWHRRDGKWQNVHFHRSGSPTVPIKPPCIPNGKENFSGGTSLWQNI

[11] = target: Calcium/calmodulin-dependent protein kinase type II subunit beta (Homo sapiens) (UniProt Q13554)
Calcium/calmodulin-dependent protein kinase type II subunit beta (Homo sapiens), sequence (Q13554 whole entry, canonical isoform): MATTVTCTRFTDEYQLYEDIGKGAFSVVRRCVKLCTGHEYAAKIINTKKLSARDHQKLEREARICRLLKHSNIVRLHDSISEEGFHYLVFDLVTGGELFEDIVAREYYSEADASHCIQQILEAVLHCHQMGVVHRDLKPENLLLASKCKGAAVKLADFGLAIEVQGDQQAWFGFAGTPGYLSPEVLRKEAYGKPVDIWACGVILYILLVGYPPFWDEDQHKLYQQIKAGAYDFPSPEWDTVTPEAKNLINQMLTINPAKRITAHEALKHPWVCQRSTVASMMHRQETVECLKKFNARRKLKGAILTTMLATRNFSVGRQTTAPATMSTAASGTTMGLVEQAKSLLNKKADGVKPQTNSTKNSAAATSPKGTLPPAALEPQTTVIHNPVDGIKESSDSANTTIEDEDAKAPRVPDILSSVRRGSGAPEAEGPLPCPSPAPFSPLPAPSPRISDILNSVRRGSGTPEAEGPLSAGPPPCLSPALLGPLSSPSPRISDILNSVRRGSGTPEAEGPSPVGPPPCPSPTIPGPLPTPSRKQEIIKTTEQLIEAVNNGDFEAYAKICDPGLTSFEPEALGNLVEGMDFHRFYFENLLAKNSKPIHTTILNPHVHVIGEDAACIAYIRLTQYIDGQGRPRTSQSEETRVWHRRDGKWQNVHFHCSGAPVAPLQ

[12] = target: Casein kinase I isoform gamma-3 (Homo sapiens) (UniProt Q9Y6M4)
Casein kinase I isoform gamma-3 (Homo sapiens), sequence (Q9Y6M4 whole entry, looked up, canonical isoform): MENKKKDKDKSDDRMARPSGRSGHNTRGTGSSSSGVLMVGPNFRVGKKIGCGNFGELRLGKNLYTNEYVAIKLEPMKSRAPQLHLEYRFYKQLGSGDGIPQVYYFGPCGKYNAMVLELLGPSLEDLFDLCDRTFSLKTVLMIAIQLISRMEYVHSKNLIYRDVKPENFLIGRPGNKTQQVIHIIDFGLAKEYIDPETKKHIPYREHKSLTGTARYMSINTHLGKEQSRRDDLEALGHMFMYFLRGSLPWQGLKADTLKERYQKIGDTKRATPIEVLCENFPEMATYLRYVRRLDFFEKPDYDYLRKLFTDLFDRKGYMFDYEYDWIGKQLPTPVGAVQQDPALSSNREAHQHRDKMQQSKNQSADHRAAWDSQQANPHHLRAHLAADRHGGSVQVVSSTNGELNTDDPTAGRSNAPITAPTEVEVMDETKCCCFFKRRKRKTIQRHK

[13] = target: Casein kinase I isoform gamma-2 (Homo sapiens) (UniProt P78368)
Casein kinase I isoform gamma-2 (Homo sapiens), sequence (P78368 whole entry, looked up, canonical isoform): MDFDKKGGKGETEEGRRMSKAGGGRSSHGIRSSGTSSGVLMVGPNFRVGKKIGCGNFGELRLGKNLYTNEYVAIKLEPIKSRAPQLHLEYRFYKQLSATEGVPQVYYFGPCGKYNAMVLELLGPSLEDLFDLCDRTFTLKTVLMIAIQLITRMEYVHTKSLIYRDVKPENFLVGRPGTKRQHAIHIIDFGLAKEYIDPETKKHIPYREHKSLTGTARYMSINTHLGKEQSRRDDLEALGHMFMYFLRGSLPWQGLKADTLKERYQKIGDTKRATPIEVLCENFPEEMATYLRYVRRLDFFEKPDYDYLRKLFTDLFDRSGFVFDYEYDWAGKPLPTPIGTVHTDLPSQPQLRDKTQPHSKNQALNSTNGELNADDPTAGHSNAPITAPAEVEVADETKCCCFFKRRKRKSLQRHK

ΔTm [1]	ΔTm [2]	ΔTm [3]	ΔTm [4]	ΔTm [5]	ΔTm [6]	ΔTm [7]	ΔTm [8]	ΔTm [9]	ΔTm [10]	ΔTm [11]	ΔTm [12]	ΔTm [13]	Compound
-0.2 °C	4.1 °C	0 °C	0.1 °C	1 °C	0.1 °C	0.3 °C	2.8 °C	0.9 °C	0.5 °C	0.4 °C	0.8 °C	0.8 °C	CN(C)c1ccc(CC2C(=O)Nc3ccccc32)cc1 (configuration not stated)
1.3 °C	3.4 °C	1.7 °C	1.6 °C	6.3 °C	1.4 °C	-0.1 °C	5.2 °C	1.3 °C	2.1 °C	1.8 °C	3.4 °C	2.5 °C	N#C/C(=C1/Nc2ccccc2S1)c1ccnc(NCCc2cccnc2)n1
0 °C	4.6 °C	0.9 °C	-0.2 °C	1.8 °C	-0.2 °C	-0.1 °C	1.8 °C	0.1 °C	0.1 °C	-0.5 °C	2.6 °C	1.7 °C	O=[N+]([O-])c1ccc(-c2nc(-c3ccc(F)cc3)c(-c3ccncc3)[nH]2)cc1
0.7 °C	2 °C	0.5 °C	0.1 °C	0.1 °C	0.1 °C	0 °C	3.4 °C	0.2 °C	-0.5 °C	0 °C	-0.1 °C	0.6 °C	COc1cc2ncnc(Nc3cccc(Br)c3)c2cc1OC
0.8 °C	-0.2 °C	-0.5 °C	-0.6 °C	0.4 °C	1 °C	0 °C	0 °C	0.9 °C	0.4 °C	0.5 °C	0.7 °C	0.4 °C	O=c1cc(N2CCOCC2)oc2c(-c3ccccc3)cccc12
0.6 °C	0 °C	0.1 °C	0.1 °C	0.3 °C	0.9 °C	0 °C	-0.2 °C	1.2 °C	0.6 °C	1 °C	0.4 °C	0.2 °C	O=c1sn(Cc2ccccc2)c(=S)n1Cc1ccccc1
-0.2 °C	-0.3 °C	-0.8 °C	0.2 °C	-0.3 °C	-0.5 °C	-0.6 °C	0.1 °C	-0.1 °C	-0.2 °C	0.1 °C	0.4 °C	0.5 °C	Ic1cccc(CSc2nnc(-c3ccncc3)o2)c1
1.1 °C	1.3 °C	0.5 °C	3.1 °C	4 °C	0.8 °C	-0.3 °C	2.3 °C	3.8 °C	2 °C	0.1 °C	0.8 °C	1.4 °C	O=C1C=C2C(=Nc3c2c2c(c4c3=NC3=C4CCC=C3)C=NC=2)CC1
1.6 °C	3.8 °C	-1 °C	3.1 °C	8.4 °C	3.2 °C	0.1 °C	2.6 °C	3.4 °C	1.1 °C	2 °C	1 °C	0.7 °C	Cn1cc(C2=C(c3cn(CCCSC(=N)N)c4ccccc34)C(=O)NC2=O)c2ccccc21
1 °C	0 °C	0.9 °C	0.1 °C	1.2 °C	1.2 °C	-0.5 °C	0.9 °C	1.2 °C	1 °C	1.5 °C	0.7 °C	0.5 °C	CC(C)c1cc(/C=C(\C#N)C(=O)NCCCc2ccccc2)cc(C(C)C)c1O
-0.1 °C	-0.4 °C	-0.2 °C	0.3 °C	0.5 °C	0 °C	0 °C	0.2 °C	-0.2 °C	-0.5 °C	-0.1 °C	0.4 °C	0.4 °C	COC1=C2C[C@@H](C)C[C@H](OC)[C@H](O)[C@@H](C)/C=C(\C)[C@H](OC(N)=O)[C@@H](OC)/C=C\C=C(/C)C(=O)NC(=CC1=O)C2=O
0.4 °C	0.8 °C	-0.2 °C	-0.4 °C	0.9 °C	0.5 °C	0 °C	1 °C	0.1 °C	0 °C	0.4 °C	0.4 °C	0.4 °C	O=C(O)/C=C/c1cc(CO)ccc1CO
-0.1 °C	0.3 °C	0.4 °C	0.7 °C	0.4 °C	0 °C	0.1 °C	0.4 °C	0.7 °C	-0.6 °C	0.1 °C	0.1 °C	0.1 °C	Oc1cccc(-c2nc(N3CCOCC3)c3oc4ncccc4c3n2)c1

Compound	ΔTm [1]	ΔTm [2]	ΔTm [3]	ΔTm [4]	ΔTm [5]	ΔTm [6]	ΔTm [7]	ΔTm [8]	ΔTm [9]	ΔTm [10]	ΔTm [11]	ΔTm [12]	ΔTm [13]
O=S(=O)(NCCNC/C=C/c1ccc(Br)cc1)c1cccc2cnccc12	-0.3 °C	0 °C	-0.1 °C	1.5 °C	-0.5 °C	0.4 °C	-0.7 °C	1.1 °C	1 °C	-0.2 °C	-0.2 °C	0.1 °C	0.1 °C
